Measured values reported in patent US6967200B2, “Remedies for cirrhosis” (Shionogi & Co., Ltd., priority 2000, dated 2005).

Biological target: T1, Human type-X sPLA2 (Homo sapiens, UniProt O15496)
T1 construct: made in house; host or cells: CHO cells stably transfected with a pSVL SV40 late promoter expression vector; unpurified culture supernatant used as the enzyme source
T1 sequence (O15496 43-165): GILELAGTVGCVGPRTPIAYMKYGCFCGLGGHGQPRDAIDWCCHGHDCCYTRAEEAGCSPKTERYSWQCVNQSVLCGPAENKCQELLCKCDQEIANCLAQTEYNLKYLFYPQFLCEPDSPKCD
Assay: type-X sPLA2 inhibition test (chromogenic assay, diheptanoylthio PC substrate)
Type: biochemical
Conditions: diheptanoylthio PC 1 mM, 30 min at 40° C., pH 7.5, absorbance at 405 nm
Source text: cDNA sequence encoding human type-X sPLA2 (Cupillard et al., J. Biol. Chem, 1997, 272, 15745-15752) was inserted into the downstream region of the promoter of pSVL SV40 Late Promoter Expression Vector (Amersham Pharmacia Biotech Inc.) that is an expression vector for mammalian cells. The obtained expression vector was transfected into the host CHO cells with a LipofectAMINE reagent (Gibco BRL Inc.) according to the manufacture's instruction to obtain the CHO cells stably expressing human type-X sPLA2.
In order to identify and evaluate an inhibitor of type-X sPLA2, the following chromogenic assay is utilized. This assay has been applied for high volume screening using a 96-well microtiterplate. A general explanation for this assay is described in “Analysis of Human Synovial Fluid Phospholipase A2 on Short Chain Phosphatidylcholine-Mixed Micelles: Development of a Spectrophotometric Assay Suitable for a Micortiterplate Reader” (Analytical Biochemistry, 204, pp 190-197, 1992 by Laure. J. Reynolds. Lori L. Hughes and Edward A. Dennis.
Human type-X sPLA2 was incubated (30 min at 40° C. (15 μl/well)) with diheptanoylthio PC (1 mM) in the presence of Triton X-100 (0.3 mM) and 5,5′-dithiobis(2-nitrobenzoic acid) (125 μM) in Tris-HCl buffer (25 mM, pH 7.5) containing CaCl2 (10 mM), KCl (100 mM), and bovine serum albumin (1.0 mg/mL). […]

NC(=O)C1=CCCc2c1c1c(OCC(=O)O)nccn1c2Cc1ccccc1 [Compound 7]
IC50: 5 nM
